Assay results reported in US7662842B2, “Thiazolidinone amides, thiazolidine carboxylic acid amides, and serine amides, including polyamine conjugates thereof, as selective anti-cancer agents” (Ohio State Univesity Research Foundation, priority 2003, dated 2010).

Key:
[1] = test system: SKMEL-188 melanoma cells; test: Sulforhodamine B assay in melanoma cells, SKMEL-188; format: cell-based; conditions: SK-MEL-188, 48 h, SRB assay, 48 h incubation; melanoma cell line
Protocol: (§1) SKMEL-188 cells were cultured in Ham's F10 medium (Gibco Invitrogen, Inc., Grand Island, N.Y.) plus 5% fetal bovine serum (Cellgro Mediatech, Inc., Herndon, Va.) and 1% antibiotic/antimycotic mixture (Sigma-Aldrich, Inc., St. Louis, Mo.). WM-164 cells (gift of Dr. Meenhard Herlyn, Wistar Inst., Philadelphia, Pa.) and human dermal fibroblasts (Cascade Biologics, Inc., Portland, Oreg.) were cultured in DMEM medium (Cellgro Mediatech, Inc.) supplemented with 5% fetal bovine serum, 1% antibiotic.antimycotic mixture and bovine insulin ([…], Sigma-Aldrich, Inc.). Human dermal fibroblasts were used as a control to examine the effects of compounds on stromal environment. Thus, the effect of the various compounds on melanoma cells versus fibroblasts would document their potential selectivity.
(§2) Sulforhodamine B Assay: Cells were seeded into 96-well plates at 5000 cells/well. After 12 hours, media were changed and serial dilutions of compounds were added. Cells were incubated with each compound for 48 hours. Fresh media containing the test compound were changed ever 24 hours. Thereafter, total cell protein corresponding to cell numbers (both viable and non-viable cells) were measured using the sulforhodamine B (SRB) assay according to manufacturer's protocol (Sigma-Aldrich, Inc.) (Rubinstein et al., “Comparison of in vitro Anticancer Drug-screening Data Generated with a Tetrazolium Assay Versus a Protein Assay Against a Diverse Panel of Human Tumor Cell Lines,” J. Natl. Cancer Inst. 82:1113-1118 (1990); Dothager et al., “Synthesis and Identification of Small Molecules that Potently Induce Apoptosis in Melanoma Cells Through GI Cell Cycle Arrest,” J. Am. Chem. Soc. 127:8686-8696 (2005), each of which is hereby incorporated by reference in its entirety). Briefly, cells were fixed with trichloracetic acid, washed and incubated with sulforhodamine B for 30 minutes. After another wash, dye incorporated into the cells was solubilized and measured using a plate reader at 565 nm.
(§3) Statistical Analysis: Data is presented as mean±SEM (n=6-8). […] Statistical analyses were performed with Student's t-test (*p<0.05; **p<0.005).
(§4) DTIC and Taxol were assayed in the same way for comparison and served as internal quality controls in the different batches of assay. For comparison, the activities of 5R and 5S were measured.

[2] = test system: WM-164 cells; test: Sulforhodamine B assay in melanoma cells, WM-164; format: cell-based; conditions: Homo sapiens, WM164, read-out: IC50 WM-164; SRB assay, 48 h incubation; melanoma cell line
Protocol: as §1, §2, §3, §4

[3] = test system: human dermal fibroblasts; test: Sulforhodamine B assay, fibroblast control cells; format: cell-based; conditions: Homo sapiens, Fibroblast, 48 h, SRB assay, 48 h incubation
Protocol: as §1, §2, §3, §4

[4] = test system: LNCaP cells; test: DNA fragmentation by agarose gel electrophoresis; format: cell-based, human; conditions: treatment for 24 to […], 3-50 μM, FIGS. 4A-B
Protocol: In FIG. 4B, the dose and exposure time are indicated for compound 5 as follows: lane 1, 100 bp DNA marker; lane 2, 5 μM for 24 h; lane 3, 5 μM for 48 h; lane 4, 5 μM for 72 h; lane 5, 5 μM for 96 h; lane 6, 3 μM for 96 h; lane 7, 8 μM for 48 h; and lane 8, 8 μM for 72 h.

[5] = test system: RH7777 rat hepatoma cells; test: SRB cytotoxicity assay, RH7777 control cell line; format: cell-based; conditions: for IC50: Rattus norvegicus, RH7777, SRB assay, 96 h exposure, control cell line
Protocol: (§5) For in vitro cytotoxicity screening, 1000 to 5000 cells were plated into each well of 96-well plates depending on growth rate, and exposed to different concentrations of a test compound for 96 h in three to five replicates. All the compounds were dissolved in dimethyl sulfoxide at 5 to 20 mM, and diluted to desired concentrations in complete culture medium. Cell numbers at the end of the drug treatment were measured by the SRB assay (Gududuru et al., “Synthesis and Biological Evaluation of Novel Cytotoxic Phospholipids for Prostate Cancer,” Bioorg. Med. Chem. Lett. 14:4919-4923 (2004); Rubinstein et al., “Comparison of in vitro Anticancer-Drug-Screening Data Generated with a Tetrazolium Assay Versus a Protein Assay Against a Diverse Panel of Human Tumor Cell Lines,” J. Natl. Cancer Inst. 82:1113-1118 (1990), each of which is hereby incorporated by reference in its entirety). Briefly, the cells were fixed with 10% of trichloroacetic acid, stained with 0.4% SRB, and the absorbances at 540 nm was measured using a plate reader (DYNEX Technologies, Chantilly, Va.). […] A sandwich ELISA (Roche, Mannheim, Germany) utilizing monoclonal antibodies specific for DNA and histones was used to quantify degree of apoptosis induced by the analogs after 72 h exposure. This assay measures DNA-histone complexes (mono- and oligonucleosomes) released into cytoplasm from the nucleus during apoptosis.

[6] = test system: DU-145 human prostate cancer cells; test: SRB cytotoxicity assay, DU-145; format: cell-based; conditions: Homo sapiens, DU-145, read-out: IC50 DU-145, 96 h exposure, prostate cancer cell line
Protocol: as §5

[7] = test system: PC-3 human prostate cancer cells; test: SRB cytotoxicity assay, PC-3; format: cell-based; conditions: Homo sapiens, 96 h exposure, prostate cancer cell line
Protocol: as §5

[8] = test system: LNCaP human prostate cancer cells; test: SRB cytotoxicity assay, LNCaP; format: cell-based; conditions: Homo sapiens, LNCaP, 96 h exposure, prostate cancer cell line
Protocol: as §5

[9] = test system: PPC-1 human prostate cancer cells; test: SRB cytotoxicity assay, PPC-1; format: cell-based; conditions: Homo sapiens, PPC-1, 96 h exposure, prostate cancer cell line
Protocol: (§6) Dr. Mitchell Steiner at University of Tennessee Health Science Center, kindly provided PPC-1 and TSU-Pr1 cells.
as §5

[10] = test system: TSU-Pr1 human prostate cancer cells; test: SRB cytotoxicity assay, TSU-Pr1; format: cell-based; conditions: Homo sapiens, TSU-Pr1, 96 h exposure, prostate cancer cell line
Protocol: as §6, §5

[11] = test system: CaOv-3 human ovarian cancer cell line; test: SRB cytotoxicity assay, CaOv-3; format: cell-based
Protocol: (§7) For in vitro cytotoxicity screening, 1000 to 5000 cells were plated into each well of 96-well plates depending on growth rate, and exposed to different concentrations of a test compound for 96 h in three to five replicates. All the compounds were dissolved in dimethyl sulfoxide at 5 to 20 mM, and diluted to desired concentrations in complete culture medium. Cell numbers at the end of the drug treatment were measured by the SRB assay (Gududuru et al., “Synthesis and Biological Evaluation of Novel Cytotoxic Phospholipids for Prostate Cancer,” Bioorg. Med. Chem. Lett. 14:4919-4923 (2004); Rubinstein et al., “Comparison of in vitro Anticancer-Drug-Screening Data Generated with a Tetrazolium Assay Versus a Protein Assay Against a Diverse Panel of Human Tumor Cell Lines,” J. Natl. Cancer Inst. 82:1113-1118 (1990), each of which is hereby incorporated by reference in its entirety). Briefly, the cells were fixed with 10% of trichloroacetic acid, stained with 0.4% SRB, and the absorbances at 540 nm was measured using a plate reader (DYNEX Technologies, Chantilly, Va.). […] A sandwich ELISA (Roche, Mannheim, Germany) utilizing monoclonal antibodies specific for DNA and histones was used to quantify degree of apoptosis induced by the analogs after 72 h exposure. This assay measures DNA-histone complexes (mono- and oligonucleosomes) released into cytoplasm from the nucleus during apoptosis. RH7777 cells were employed because of nonspecific cytotoxicity of compound 4 in receptor-negative cells as well as receptor-positive prostate cancer cells.
(§8) In vitro cytotoxicity assay was performed by the same sulforhodamine B (SRB) assay (described above). The compounds shown in Table 8 below where tested for activity against the breast cancer and ovarian cancer cell lines.

[12] = test system: OVCAR-3 human ovarian cancer cell line; test: SRB cytotoxicity assay, OVCAR-3; format: cell-based
Protocol: as §7, §8

[13] = test system: SKOv-3 human ovarian cancer cell line; test: SRB cytotoxicity assay, SKOv-3; format: cell-based; conditions: SK-OV-3
Protocol: as §7, §8

[14] = test system: PC-3 cells; test: Apoptosis sandwich ELISA (DNA-histone complex), PC-3; format: cell-based, human
Protocol: as §7
(§9) From the LPL receptor mRNA expression studies (Table 2), it was evident that these cell lines serve as an excellent model system to explore the effects of LPL receptor. Given the structural similarity of SAPs to ceramide (and the known ability of ceramide to induce apoptosis), it was then determined whether the antiproliferative effects of thiazolidine analogs were mediated via apoptotic events. The ability of the analogs to induce apoptosis in LNCaP, PC-3, and RH7777 cells was examined using a quantitative sandwich ELISA that measures DNA-histone complex released during apoptosis. The enrichment factor calculated (as ratio of OD405 in treated and un-treated cells) provides a quantitative assessment of the degree of apoptosis induced. Initially, only two compounds (4 & 5) were used for this study. Apoptotic activity of analog (compound 4) was selective in prostate cancer cells despite nonselective cytotoxicity in RH7777 negative control cells (see Table 5 below). Analog compound 5 induced apoptosis in PC-3 and LNCaP cells, but to a lesser extent in PC-3 cells perhaps due to lower potency in this cell line.

[15] = test system: LNCaP cells; test: Apoptosis sandwich ELISA (DNA-histone complex), LNCaP; format: cell-based, human
Protocol: as §7, §9

IC50 [1] [µM] | IC50 [2] [µM] | melting point [°C] | Compound | IC50 [3] [µM] | IC50 [5] [µM] | IC50 [6] [µM] | IC50 [7] [µM] | IC50 [8] [µM] | IC50 [9] [µM] | IC50 [10] [µM] | IC50 [11] [µM] | IC50 [12] [µM] | IC50 [13] [µM] | further results
39.6 | > 50 |  | CCCCCCCCCCCCCCCCCCNC(=O)[C@@H]1CSC(c2ccccc2)N1.Cl (mixture of isomers) [Compound 5, (2RS, 4R)-2-Phenylthiazolidine-4-carboxylic acid octadecylamide Hydrochloride] | > 50 |  |  |  |  |  |  |  |  |  | DNA fragmentation (apoptosis) in LNCaP cells [4]: induce cell apoptosis
24 | 18.1 |  | CCCCCCCCCCCCCCCCCCNC(=O)[C@H]1CSC(c2ccccc2)N1 (stereo partly drawn) [5(S), (4S)—N-octadecyl-2-phenylthiazolidine-4-carboxamide] | 27.5 |  |  |  |  |  |  |  |  |  | Apoptosis enrichment factor (ratio of OD405 in treated and un-treated cells), PC-3 ([14]; 2 μM for 72 h): 1.1; Apoptosis enrichment factor (ratio of OD405 in treated and un-treated cells), PC-3 ([14]; 5 μM for 72 h): 1.2; Apoptosis enrichment factor (ratio of OD405 in treated and un-treated cells), PC-3 ([14]; 10 μM for 72 h): 1.4; Apoptosis enrichment factor (ratio of OD405 in treated and un-treated cells), PC-3 ([14]; 20 μM for 72 h): 2.7; Apoptosis enrichment factor (ratio of OD405 in treated and un-treated cells), LNCaP ([15]; 2 μM for 72 h): 3.1; Apoptosis enrichment factor (ratio of OD405 in treated and un-treated cells), LNCaP ([15]; 5 μM for 72 h): 5.4; Apoptosis enrichment factor (ratio of OD405 in treated and un-treated cells), LNCaP ([15]; 10 μM for 72 h): 25.8; Apoptosis enrichment factor (ratio of OD405 in treated and un-treated cells), LNCaP ([15]; 20 μM for 72 h): 46.8; Induction of apoptosis in LNCaP and PC-3 cells ([15]; LNCaP and PC-3 cells, lesser extent in PC-3): significantly induced apoptosis

More lines, now with the values behind:

Compound | IC50 [1] [µM] | IC50 [2] [µM] | melting point [°C] | IC50 [3] [µM] | IC50 [5] [µM] | IC50 [6] [µM] | IC50 [7] [µM] | IC50 [8] [µM] | IC50 [9] [µM] | IC50 [10] [µM] | IC50 [11] [µM] | IC50 [12] [µM] | IC50 [13] [µM] | further results
CCCCCCCCCCCCCCCCCCNC(=O)[C@@H]1CSC(c2cccc(O)c2)N1 (mixture of isomers) [Compound 14, (2RS, 4R)-2-(3-Hydroxy-phenyl)-thiazolidine-4-carboxylic acid octadecylamide] |  |  | 50 |  | 31 | 5.7 | 6.7 | 1.7 | 1.2 | 4 | 18.3 | 8.1 | 11 | 
CCCCCCCCCCCCCCCCCCNC(=O)[C@@H]1CSC(c2ccc(OC)c(OC)c2)N1.Cl (mixture of isomers) [Compound 16, (2RS, 4R)-2-(3,4-Dimethoxy-phenyl)-thiazolidine-4-carboxylic acid octadecylamide Hydrochloride] | 2.4 | 3.1 | 103 | > 10 | 10.3 | 4.5 |  | 0.85 | 0.58 | 2.4 | 5.5 | 1.2 | 3.6 | 
CCCCCCCCCCCCCCCCCCNC(=O)C1CSC(c2ccoc2)N1 (stereo not drawn) [Compound 12, 2-(furan-3-yl)-N-octadecylthiazolidine-4-carboxamide] |  |  |  |  | 10.4 | 6.6 | 8.1 | 1.7 | 1.1 | 4.2 | 7.7 | 2.3 | 5.4 | Fold less selective against RH7777 cell line than compound 5 ([5]; relative to compound 5): 3 fold
